Our source for the MIC values is ChEMBL document CHEMBL4602605, “Fluoroquinolones structural and medicinal developments (2013-2018): Where are we now?” (Bioorg Med Chem, 2019).

In brackets after ≈: the same amount, converted by molar mass.

Common to all, as to type: functional
One experiment deals with Staphylococcus aureus. The experiment in a line: Antimicrobial activity against Staphylococcus aureus ATCC 29213 by CLSI-based broth microdilution method.
A further experiment deals with Escherichia coli. Description: Antimicrobial activity against tolC deficient Escherichia coli KD65 by CLSI-based broth microdilution method. For orientation: Dilution methods test growth across graded concentrations, often in twofold steps.
A further experiment has as its system Pseudomonas aeruginosa. Description: Antimicrobial activity against Pseudomonas aeruginosa PAO1 by CLSI-based broth microdilution method.
[1] abbreviates: Staphylococcus aureus, ATCC 29213, read-out: MIC.
Setting [2] is: Escherichia coli, KD65, read-out: MIC.

As a reminder, the MIC is the lowest concentration that inhibits growth of the organism.

With `O=C(O)c1cn(C2CC2)c2c3c(c(F)cc2c1=O)N1CCCC1C/C(=N\O)C3` (centres undefined), the values for the minimum inhibitory concentration (MIC) in the experiment on Staphylococcus aureus (setting [1]), in the experiment with Escherichia coli (setting [2]) and against Pseudomonas aeruginosa were 0.125 µg/mL (≈ 0.324 µM), 0.03 µg/mL (≈ 0.0778 µM) and over 16 µg/mL, respectively.
Regarding `CO/N=C1/Cc2c(c(F)cc3c(=O)c(C(=O)O)cn(C4CC4)c23)N2CCCC2C1` (centres undefined), the MIC with Staphylococcus aureus (setting [1]) came to 1 µg/mL (≈ 2.5 µM); in the experiment with Escherichia coli (setting [2]), 0.25 µg/mL (≈ 0.626 µM); against Pseudomonas aeruginosa, 64 µg/mL (≈ 160 µM).
`N[C@@H]1CCN2c3c(F)cc4c(=O)c(C(=O)O)cn(C5CC5)c4c3CNC[C@H]12`: the MIC in the experiment on Staphylococcus aureus (setting [1]) was 1 µg/mL (≈ 2.69 µM); in the experiment with Escherichia coli (setting [2]), 0.25 µg/mL (≈ 0.671 µM); with Pseudomonas aeruginosa, 16 µg/mL (≈ 43 µM).
For `N[C@@H]1CCN2c3c(F)cc4c(=O)c(C(=O)O)cn(C5CC5)c4c3C=C[C@H]12`, in that order: 8 µg/mL (≈ 22.5 µM), 1 µg/mL (≈ 2.81 µM) and over 64 µg/mL.
As for `N[C@H]1C[C@H]2CCCc3c(c(F)cc4c(=O)c(C(=O)O)cn(C5CC5)c34)N2C1`, the figures for the MIC in the experiment on Staphylococcus aureus (setting [1]), in the experiment on Escherichia coli (setting [2]) and with Pseudomonas aeruginosa were 0.5 µg/mL (≈ 1.35 µM), 0.015 µg/mL (≈ 0.0404 µM) and 0.5 µg/mL (≈ 1.35 µM), respectively.
For the compound `O=C(O)c1cn(C2CC2)c2c3c(c(F)cc2c1=O)N1CCCC1CN=C3` (centres undefined), the MIC with Staphylococcus aureus (setting [1]) is 0.25 µg/mL (≈ 0.703 µM); with Escherichia coli (setting [2]), 0.25 µg/mL (≈ 0.703 µM); against Pseudomonas aeruginosa it was 2 µg/mL (≈ 5.63 µM).
Turning to `N[C@@H]1CCN2c3c(F)cc4c(=O)c(C(=O)O)cn(C5CC5)c4c3CC[C@H]12`, the MIC in the experiment with Staphylococcus aureus (setting [1]) is 0.03 µg/mL (≈ 0.0839 µM); in the experiment with Escherichia coli (setting [2]), 0.004 µg/mL (≈ 0.0112 µM); with Pseudomonas aeruginosa, 0.5 µg/mL (≈ 1.4 µM).
Take `O=C(O)c1cn(C2CC2)c2c3c(c(F)cc2c1=O)N1CCCC1C[S+]([O-])C3` (stereo in doubt; 440): the MIC was 1 µg/mL (≈ 2.56 µM) in the experiment with Staphylococcus aureus, 16 µg/mL (≈ 41 µM) against Escherichia coli and over 16 µg/mL against Pseudomonas aeruginosa.
Take `N[C@H]1C[C@@H]2CC=Cc3c(c(F)cc4c(=O)c(C(=O)O)cn(C5CC5)c34)N2C1`: the results for the MIC with Staphylococcus aureus (setting [1]), in the experiment on Escherichia coli (setting [2]) and against Pseudomonas aeruginosa were at most 0.06 µg/mL, 0.008 µg/mL (≈ 0.0217 µM) and 0.22 µg/mL (≈ 0.596 µM), respectively.
For `O=C(O)c1cn(C2CC2)c2c3c(c(F)cc2c1=O)N1CCCC1CS(=O)(=O)C3` (centres undefined), in that order: 1 µg/mL (≈ 2.46 µM), 0.25 µg/mL (≈ 0.615 µM) and over 64 µg/mL.
Turning to `O=C(O)c1cn(C2CC2)c2c3c(c(F)cc2c1=O)N1CCCC1CNC3` (centres undefined), the MIC was 0.25 µg/mL (≈ 0.7 µM) with Staphylococcus aureus (setting [1]), 0.125 µg/mL (≈ 0.35 µM) in the experiment with Escherichia coli (setting [2]) and 16 µg/mL (≈ 44.8 µM) with Pseudomonas aeruginosa.
With `N[C@H]1CCN2c3c(F)cc4c(=O)c(C(=O)O)cn(C5CC5)c4c3CCC[C@H]12`, the MIC in the experiment with Staphylococcus aureus (setting [1]) was 0.015 µg/mL (≈ 0.0404 µM); with Escherichia coli (setting [2]), 0.004 µg/mL (≈ 0.0108 µM); against Pseudomonas aeruginosa, 0.29 µg/mL (≈ 0.781 µM).
Consider `N[C@@H]1CCN2c3c(F)cc4c(=O)c(C(=O)O)cn(C5CC5)c4c3COC[C@H]12`, for which the figures for the minimum inhibitory concentration (MIC) in the experiment on Staphylococcus aureus (setting [1]), with Escherichia coli (setting [2]) and with Pseudomonas aeruginosa were 2 µg/mL (≈ 5.36 µM), 0.004 µg/mL (≈ 0.0107 µM) and 0.5 µg/mL (≈ 1.34 µM), respectively.
For `O=C(O)c1cn(C2CC2)c2c3c(c(F)cc2c1=O)N1CCCC1CC(O)C3O` (centres undefined), in that order: under 0.06 µg/mL, under 0.06 µg/mL and 8 µg/mL (≈ 20.6 µM).
Regarding `N[C@H]1C[C@H]2CC=Cc3c(c(F)cc4c(=O)c(C(=O)O)cn(C5CC5)c34)N2C1`, the MIC in the experiment on Staphylococcus aureus (setting [1]) worked out at 8 µg/mL (≈ 21.7 µM); with Escherichia coli (setting [2]) it was 16 µg/mL (≈ 43.3 µM); with Pseudomonas aeruginosa, 64 µg/mL (≈ 173 µM).
For `N[C@H]1CCN2c3c(F)cc4c(=O)c(C(=O)O)cn(C5CC5)c4c3C=CC[C@H]12`, the values for the MIC with Staphylococcus aureus (setting [1]), with Escherichia coli (setting [2]) and in the experiment with Pseudomonas aeruginosa were 0.007 µg/mL (≈ 0.0189 µM), 0.0022 µg/mL (≈ 0.00596 µM) and 0.16 µg/mL (≈ 0.433 µM), respectively.
Consider `O=C(O)c1cn(C2CC2)c2c3c(c(F)cc2c1=O)N1CCCC1C(=O)NC3` (centres undefined), for which the figures for the MIC in the experiment with Staphylococcus aureus (setting [1]), in the experiment with Escherichia coli (setting [2]) and in the experiment with Pseudomonas aeruginosa were 16 µg/mL (≈ 43.1 µM), 8 µg/mL (≈ 21.5 µM) and over 64 µg/mL, respectively.
With `N[C@@H]1CCN2c3c(F)cc4c(=O)c(C(=O)O)cn(C5CC5)c4c3/C=C\CC[C@H]12`, the figures for the MIC with Staphylococcus aureus (setting [1]), in the experiment on Escherichia coli (setting [2]) and in the experiment on Pseudomonas aeruginosa were 4 µg/mL (≈ 10.4 µM), 0.25 µg/mL (≈ 0.652 µM) and 32 µg/mL (≈ 83.5 µM), respectively.
For `O=C(O)c1cn(C2CC2)c2c3c(c(F)cc2c1=O)N1CCCC1CCC3` (centres undefined), in that order: 0.1 µg/mL (≈ 0.281 µM), 0.18 µg/mL (≈ 0.505 µM) and 17 µg/mL (≈ 47.7 µM).
Consider `O=C(O)c1cn(C2CC2)c2c3c(c(F)cc2c1=O)N1CCCC1C[S+]([O-])C3` (stereo in doubt; 441), for which the MIC was 4 µg/mL (≈ 10.2 µM) in the experiment on Staphylococcus aureus and 1 µg/mL (≈ 2.56 µM) in the experiment on Escherichia coli.
